We go through 1 molecule from patent US7713969B2, “Compositions and methods for treatment of cancer” (ArQule, Inc., priority 2005, dated 2010).

In series [1] the test system is NCI-H446. Description: Cell viability MTS assay. Type of series: cell-based, human. The following applies: Homo sapiens, NCI-H446, 72 hours with compound. The gist of the method:
(§1)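 Adherent lines grown in DMEM with 15% heat-inactivated FBS at 37° C., 5% CO2; seeded, left 16-24 hours, then exposed to serially diluted compound (0.33% DMSO final) for 72 hours. MTS/PMS added for 4 hours, SDS stop, A490 read; IC50 is 50% fewer viable cells versus DMSO controls.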
On the technique in general: Formazan colour is commonly taken as a measure of viable cells.

Series [2] concerns NCI-H69. Description: Cell viability MTS assay. Type of series: cell-based, human. The following applies: Homo sapiens, NCI-H69, 72 hours with compound. The procedure, abridged: as §1
Series [3] deals with NCI-H82. Description: Cell viability MTS assay. Type of series: cell-based, human. The following applies: Homo sapiens, NCI-H82, 72 hours with compound. The gist of the method:
as §1

The subject of series [4] is MDA-MB-231 cells. Description: Colony counting, surviving fraction (Example 78). The following applies: Homo sapiens, MDA-MB-231; two days incubation, colonies counted two weeks later; read-out: IC50 (surviving fraction equaled 50). Type of series: cell-based, human. How it is done: MDA-MB-231 cells (ATCC# HTB-26), grown in DMEM plus 15% heat inactivated fetal bovine serum plus 10 mM HEPES pH 7.5, were plated in 60 mm plates (2×10^5 cells per plate). After two days candidate compounds in DMSO at various concentrations were diluted in media and added to individual plates such that the final DMSO concentration in the cell culture media was 0.1%. After two days incubation the culture was trypsinized, cells were washed with media, counted using a hemocytometer and 500 cells, including cell bodies, were plated in […] in media. Two weeks later the media was removed and the cell colonies were fixed with methanol for 10 minutes, stained with 1% crystal violet 10 minutes, washed with water and air dried. Cell colonies were visually counted when there were greater then 50 cells present per colony. Plating efficiency was defined as the average number of colonies formed divided by 500. The surviving fraction was defined as the plating efficiency of a candidate compound divided by the plating efficiency of DMSO multiplied by 100. For candidate compound titrations, the IC50 concentration was determined by fitting the equation y=AeBx to the data points and extrapolating the concentration where surviving fraction equaled 50. […]

For series [5], the system named is MDA-MB-231 human breast cancer xenograft. Description: Breast cancer xenograft model (Example 86). Type of series: in vivo, mice. How it is done: MDA-MB-231 human breast cancer cells were inoculated subcutaneously into female athymic nude mice (8.0×10^6 cells/mouse) and allowed to form palpable tumors. Once the tumors reached approximately 60 mm^3, the animals were treated orally with (−)-trans-3-(5,6-dihydro-4H-pyrrolo[3,2,1-ij]quinolin-1-yl)-4(1H-indol-3-yl)pyrrolidine-2,5-dione at 200 mg/kg or vehicle control daily (5 consecutive days, followed by a 2 day dosing holiday). (−)-trans-3-(5,6-dihydro-4H-pyrrolo[3,2,1-ij]quinolin-1-yl)-4(1H-indol-3-yl)pyrrolidine-2,5-dione was formulated in PEG 400:20% Vitamin E TPGS (60:40). The animals received a total of 20 doses of (−)-trans-3-(5,6-dihydro-4H-pyrrolo[3,2,1-ij]quinolin-1-yl)-4(1H-indol-3-yl)pyrrolidine-2,5-dione or vehicle control. Tumors were measured throughout treatment and the post-treatment observation period. Each point represents the mean±SEM of ten tumors. (See FIG. 10)

With `O=C1NC(=O)C(c2cn3c4c(cccc24)CCC3)C1c1c[nH]c2ccccc12` (single isomer, unassigned; (-)), the half-inhibitory concentration (IC50) in series [1] stood at 581 nM; in series [2], 1040 nM; in series [3] it was 828 nM; in series [4] it was 620 nM. In addition, the “change in body weight” value in series [5] (200 mg/kg oral administration) is “no significant change in body weight”. In addition, the Tumor growth inhibition in series [5] (200 mg/kg orally, daily 5 days on/2 off, 20 doses) worked out at 79%.

One may read the IC50 as the midpoint of a concentration-inhibition curve.
